This passage reports IC50 results from ChEMBL document CHEMBL4033610, “Analogues of the Potent Antitumor Compound Leiodermatolide from a Deep-Water Sponge of the Genus Leiodermatium” (J Nat Prod, 2017).

The test concerns ASPC1. The test is described as follows: Cytotoxicity against human Aspc-1 cells incubated for 72 hrs by MTT assay. The format is functional, cell-based. The following applies: ASPC1, 72 h. A general note: Tetrazolium assays rely on reduction of a dye to a coloured formazan, in cell work by metabolically active cells.

pIC50: −log10 of the molar value.

In turn, `CC[C@@H]1OC(=O)C[C@@](O)(C/C=C/C=C(\C)[C@H]2OC(=O)CC/C=C(\C)[C@@H](C)[C@H](O)[C@H](C)[C@@H](OC(N)=O)/C=C\C=C/[C@@H]2C)[C@H]1C` gave a pIC50 of 7.34.
For `C=C1[C@@H](C)[C@H](O)[C@H](C)[C@@H](OC(N)=O)/C=C\C=C/[C@H](C)[C@@H](/C(C)=C/C=C/C[C@]2(O)CC(=O)O[C@@H](CC)[C@@H]2C)OC(=O)CC[C@H]1OO` the value was 5.43.
For `CC[C@@H]1OC(=O)C[C@@H](C/C=C/C=C(\C)[C@H]2OC(=O)CC/C=C(\C)[C@@H](C)[C@H](O)[C@H](C)[C@@H](OC(N)=O)/C=C\C=C/[C@@H]2C)[C@H]1C` the value was 7.37.

By pIC50 is commonly meant −log10 of the IC50, conventionally taken in molar units. A high value points to a small IC50.
